SMILES strings stand for the structures.

This assay addresses T1, ARAF (Homo sapiens, UniProt P10398).
T1 construct: ARAF kinase reactions were rigorously the same with the exception that kinase concentration was raised to 3.75 nM (cat. No. 1768-0000-1; Reaction Biology)
T1 sequence (P10398 303-606 limits assumed): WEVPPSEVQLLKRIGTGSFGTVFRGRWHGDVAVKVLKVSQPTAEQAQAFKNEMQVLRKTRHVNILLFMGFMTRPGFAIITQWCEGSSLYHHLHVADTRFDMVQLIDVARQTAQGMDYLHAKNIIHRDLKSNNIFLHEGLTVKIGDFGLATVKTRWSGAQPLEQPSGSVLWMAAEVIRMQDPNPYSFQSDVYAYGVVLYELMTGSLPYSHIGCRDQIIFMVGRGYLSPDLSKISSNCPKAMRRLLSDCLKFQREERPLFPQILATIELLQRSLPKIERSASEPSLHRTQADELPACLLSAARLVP
The assay is described as follows: ARAF kinase activity assay (AlphaLISA p-MEK 1/2). Type of assay: biochemical. To be noted: Table A; 10 μM ATP, kinase-dead MEK1 substrate. The method, then:
Compound preparation: solid samples of each substance in 1dram vials were suspended in DMSO (Fisher Scientific) at a stock concentration of 20 mM. Stocks were kept at −20° C. and protected from light. If solubility of the compound at 20 mM appeared to be an issue, the initial concentration of the DMSO stock was changed to 10 mM or 5 mM.
In vitro enzymatic reactions were used for evaluating compounds intrinsic activity against BRAF, CRAF and ARAF. For BRAF and CRAF, 0.375 nM of purified GST-tagged kinases (cat. No. B4062-10UG and cat. No. R1656-10UG respectively from Millipore Sigma) were incubated with 75 nM of kinase-dead MEK1 substrate (cat. No. 40075; BPS Bioscience) in the presence of 10 μM of Ultrapure ATP (cat. No. V9102; Promega; part V915A) with and without the test compound in a buffer containing 50 mM HEPES pH 7.5, 10 mM MgCl2, 1 mM EDTA, 0.01% Brij-35 and 2 mM DTT. Separate reactions were performed with the MEK1 substrate and ATP as a blank control. ARAF kinase reactions were rigorously the same with the exception that kinase concentration was raised to 3.75 nM (cat. No. 1768-0000-1; Reaction Biology).
For compound treatment, 5 μL/well of test substance solution are placed in a 384-well proxyplate (Perkin Elmer) and mixed with 2× concentrated kinase reactions. The dilution series is selected so that nine concentrations cover a range from 100 nM to 0.01 nM. […] The final concentration of DMSO in the assay is set at 0.05%.
ARAF kinase reactions were carried out for a total of 2 hours at 30° C. and then stopped by addition of EDTA at a final concentration of 40 mM. Reactions were then detected using the AlphaLISA® SureFire® Ultra™ p-MEK 1/2 (Ser218/222) (PerkinElmer) kit. Reactions were performed with 5 μL of kinase reaction according to the manufacturer's specifications in 384-well proxyplates (Perkin Elmer) followed by overnight incubation of the AlphaLISA® reactions at room temperature in a humidified chamber. After completion of the detection reactions, the signals were recorded on a Synergy Neo2 plate reader (Biotek) equipped with AlphaLISA® filters. The effect of each compound dilution on the pMEK signal generated by ARAF reactions was expressed in % inhibition and calculated as follows. An internal 100% inhibition control (average of luminescence in kinase reactions comprising kinase dead MEK1 substrate alone) was included in each plate to measure of pMEK background and was subtracted from each data point. The average of DMSO (vehicle) controls (set as 0% inhibition) was also established and used to calculate % inhibition:
IC50 values were obtained by plotting the kinase inhibition values and fitting the dose-activity curves using a log(agonist) versus response—variable slope (four parameters) function using either GraphPadPrism (V7.0) or Dotmatics Screening Ultra platform. Standards included in the ARAF kinase assay were Belvarafenib (MedChem Express cat. No. HY-109080; CAS No. 1446113-23-0), LXH254 (MedChem Express cat. No. HY-112089; CAS No. 1800398-38-2) and BGB283 (cat. No. HY-18957; CAS No. 1446090-79-4).
For orientation: IC50 means the concentration that inhibits the measured activity by half. With `Cc1ccc2c(Nc3cccc(Cl)c3F)nccc2c1NC(=O)c1csc2c(N)ncnc12` [Belvarafenib, reference compound], the 50% inhibitory concentration (IC50) was over 10 nM.

Regarding `N#CC1(c2cccc3c2ncn3-c2nc3c(Nc4c(F)ccc(NS(=O)(=O)c5cccc(Cl)c5Cl)c4F)ncnc3s2)CC1` [Example 122], the IC50 fell in the range of 1 to 10 nM.

Consider `Cc1c(F)cccc1S(=O)(=O)Nc1ccc(F)c(Nc2ncnc3sc(-n4cc(C(=O)N5C6CCC5CN(C)C6)c5ccccc54)nc23)c1F` [Example 44], for which the IC50 was in the range of 1 to 10 nM.

These data come from patent publication US20260137697A1, “THIAZOLO[5,4-D]PYRIMIDINE COMPOUNDS, COMPOSITIONS COMPRISING THEM AND USES THEREOF” (University de Montreal, priority 2022, published 2026).
